These results are taken from patent US20110312934A1, “2-ALKYL-6-CYCLOAMINO-3-(PYRIDIN-4-YL)IMIDAZO[1,2-B]-PYRIDAZINE DERIVATIVES, PREPARATION THEREOF, AND THERAPEUTIC APPLICATION THEREOF” (SANOFI-AVENTIS, priority 2008, published 2011).

Bounds are passed on as bounds.

Series [1] concerns Mper1-luc Rat-1 (P2C4) fibroblasts. The series is described as follows: Circadian cell assay (mPer1 luciferase reporter, period prolongation). The settings on record: effective concentration that induced a 1-hour prolongation of the circadian period, interpolated from hyperbolic curve. It is filed as cell-based. The method, then:
Mper1-luc Rat-1 (P2C4) fibroblast cultures were prepared by dividing the cultures every 3-4 days (approximately 10-20% of confluence) on 150 cm^2 degassed polystyrene tissue culture flasks (Falcon® #35-5001) and maintained in growth medium [EMEM (Cellgro #10-0,0-CV); 10% foetal bovine serum (FBS; Gibco #16000-044); and 50 I.U./ml of penicillin-streptomycin (Cellgro #30-001-CI)] at 37° C. and under 5% CO2.
Cells obtained from Rat-1 fibroblast cultures at 30-50% of confluence as described above were co-transfected with vectors containing the selection marker for resistance to zeocin for a stable transfection and a luciferase reporter gene controlled by the mPer-1 promoter. After 24 to 48 hours, the cultures were divided on 96-well plates and maintained in growth medium supplemented with 50-100 μg/ml of zeocin (Invitrogen® #45-0430) for 10-14 days. The zeocin-resistant stable transfectants were evaluated for the expression of the reporter by adding 100 μM luciferin (Promega® #E1603®) to the growth medium and by assaying the luciferase activity on a TopCount® scintillation counter (Packard Model #C384V00). The Rat-1 cell clones expressing both zeocin resistance and lucerifase activity controlled by mPer1 were serum-shock synchronized with 50% horse serum [HS (Gibco® #16050-122)] and the activity of the circadian reporter was evaluated. The P2C4 clone of Mper1-luc Rat-1 fibroblasts was selected to test the compound.
Mper1-luc Rat-1 (P2C4) fibroblasts at 40-50% of confluence, obtained according to the protocol described above, were plated out onto 96-well opaque tissue culture plates (Perkin Elmer® #6005680). The cultures are maintained in growth medium supplemented with 100 μg/ml of zeocin (Invitrogen #45-0430) until they reach 100% of confluence (48-72 h). The cultures were then synchronized with 100 μl of synchronization medium [EMEM (Cellgro #10-0,0-CV); 100 I.U./ml of penicillin-streptomycin (Cellgro #30-001-C1); 50% HS (Gibco #16050-122)] for 2 hours at 37° C. and under 5% CO2. After synchronization, the cultures were rinsed with 100 μl of EMEM (Cellgro #10-010-CV) for 10 minutes at ambient temperature. After rinsing, the medium was replaced with 300 μl of CO2 independent medium [CO2I (Gibco #18045-088); 2 mM L-glutamine (Cellgro #25-005-C1); 100 U.I./ml of penicillin-streptomycin (Cellgro #30-001-C1); 100 μM luciferin (Promega #E 1603)]. […]
The two methods produced a virtually identical period estimation on a range of circadian periods. […] The data were analysed by adjusting a hyperbolic curve to the data expressed as change of period (y-axis) as a function of the concentration of the test compound (x-axis) in the XLfit™ software and the CE Delta (t+1 h) was interpolated from this curve.
(In a reporter assay the amount or activity of a reporter protein is the signal.)

In series [2] the target is T1, casein kinase 1 epsilon (CK1 epsilon) (Homo sapiens, UniProt P49674).
T1 construct: Invitrogen Corporation (alternative)
T1 sequence (P49674 whole entry): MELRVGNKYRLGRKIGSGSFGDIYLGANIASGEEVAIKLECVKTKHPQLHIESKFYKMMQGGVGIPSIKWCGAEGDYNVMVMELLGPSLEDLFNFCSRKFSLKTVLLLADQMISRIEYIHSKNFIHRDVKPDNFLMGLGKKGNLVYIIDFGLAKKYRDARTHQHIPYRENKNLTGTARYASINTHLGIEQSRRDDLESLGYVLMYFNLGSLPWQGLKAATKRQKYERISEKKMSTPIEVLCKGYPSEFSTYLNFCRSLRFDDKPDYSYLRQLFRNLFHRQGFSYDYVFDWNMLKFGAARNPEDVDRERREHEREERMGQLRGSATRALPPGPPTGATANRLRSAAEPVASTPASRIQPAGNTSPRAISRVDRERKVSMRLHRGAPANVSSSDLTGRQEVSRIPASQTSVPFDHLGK
The series is described as follows: Filter-plate assay of ATP-33P, inhibition of phosphorylation of casein by CK1 epsilon. The settings on record: ATP-33P filtration, cold ATP 10 μM final, 2 hours at ambient temperature, read-out: CK1 epsilon Cl50. It is filed as biochemical. The protocol:
The capacity of the compounds of the invention to inhibit the phosphorylation of casein by casein kinase 1 epsilon and delta may be evaluated according to the procedure described in US 2005/0131012.
Filter-Plate Assay of ATP-^33P for the Screening of CK1 Epsilon Inhibitors:
The effect of the compounds on inhibition of the phosphorylation of casein by the enzyme casein kinase 1 epsilon (CK1 epsilon) is measured, using a casein assay with filtration of ATP-^33P in vitro.
Casein kinase 1 epsilon (0.58 mg/ml) is obtained via fermentation and purification processes performed according to methods that are well known to those skilled in the art, or may also be obtained from Invitrogen Corporation™ (human CK1 epsilon).
The compounds are tested at five different concentrations so as to generate IC50 values, i.e. the concentration at which a compound is capable of inhibiting the enzymatic activity by 50%, or alternatively the percentage of inhibition at a concentration of 10 micromolar.
“U”-bottomed Falcon plates are prepared by placing 5 μl of solutions of the compounds according to the invention at concentrations of 10, 1, 0.1, 0.01 or 0.001 μM in different wells. The solutions of the compounds according to the invention at these various concentrations are prepared by diluting in a test buffer (50 mM Tris, pH 7.5, […], 2 mM DTT and 1 mM EGTA) a stock solution in DMSO at a concentration of 10 mM. Next, 5 μl of dephosphorylated casein are added to a final concentration of 0.2 μg/μl, 20 μl of CK1 epsilon to a final concentration of 3 ng/μl, and 20 μl of ATP-^33P to a final concentration of 0.02 μCi/μl mixed with cold ATP (10 μM final—approximately 2×10^6 CPM per well). The final total test volume per well is equal to 50 μl.
The “U”-bottomed Falcon® test plate mentioned above is vortexed, and then incubated at ambient temperature for 2 hours. After 2 hours, the reaction is stopped by adding an ice-cold solution of 65 μl of ATP (2 mM) prepared in test buffer.
100 μl of the reaction mixture are then transferred from the “U”-bottomed Falcon® plate into Millipore® MAPH filter plates, preimpregnated with 25 μl of ice-cold 100% TCA. […]
The plates are left to dry overnight at ambient temperature. […] The radiation emitted by each well is then measured for 2 minutes in a Packard® Topcount NXT scintillation counter, in which the values of CPM/well are measured.
The percentage inhibition of the capacity of the enzyme to phosphorylate the substrate (casein) is determined for each concentration of compound tested. These inhibition data expressed as percentages are used to calculate the IC50 value for each compound compared with the controls.
The kinetic studies determined the KM value for ATP as being 21 μM in this test system.

The target in series [3] is T2, human CK1 delta (Homo sapiens, UniProt P48730).
T2 construct: purchased Invitrogen Corporation PV3665
T2 sequence (P48730 whole entry): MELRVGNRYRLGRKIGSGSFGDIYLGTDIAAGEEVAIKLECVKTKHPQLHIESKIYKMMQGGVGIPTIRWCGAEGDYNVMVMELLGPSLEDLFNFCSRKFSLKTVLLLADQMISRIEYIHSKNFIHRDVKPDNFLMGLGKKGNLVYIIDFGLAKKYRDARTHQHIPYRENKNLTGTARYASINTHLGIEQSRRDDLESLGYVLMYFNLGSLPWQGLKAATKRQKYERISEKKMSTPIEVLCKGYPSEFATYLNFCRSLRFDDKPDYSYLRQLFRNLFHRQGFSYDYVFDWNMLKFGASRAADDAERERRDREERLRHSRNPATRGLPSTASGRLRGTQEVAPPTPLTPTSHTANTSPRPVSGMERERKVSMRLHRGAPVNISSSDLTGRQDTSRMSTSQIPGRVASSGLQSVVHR
As to the kind of experiment: FRET Z'Lyte kinase assay, CK1 delta. It is filed as biochemical. The note with it: peptide substrate SER/THR 11 2 μM, ATP 4 times the KM, read-out: CK1 delta Cl50. The text has this: The capacity of the compounds of the invention to inhibit the phosphorylation of casein by casein kinase 1 epsilon and delta may be evaluated using a FRET (Fluorescence Resonance Energy Transfer) fluorescence test with the aid of the Z'Lyte™ kinase assay Kit (reference PV3670; Invitrogen Corporation™) according to the manufacturer's instructions.
The casein kinases 1 used are obtained from Invitrogen Corporation (human CK1 epsilon PV3500 and human CK1 delta PV3665).
A peptide substrate, labelled at both ends with a fluorophore donor group (coumarin) and a fluorophore acceptor group (fluorescein), constituting a FRET system is phosphorylated in the presence of ATP by casein kinase 1 epsilon or delta in the presence of increasing concentrations of compounds of the invention.
The mixture is treated with a site-specific protease that specifically cleaves the peptide substrate to form two fluorescent fragments having a large fluorescence emission ratio.
The fluorescence observed is thus related to the capacity of the products of the invention to inhibit the phosphorylation of the peptide substrate by casein kinase 1 epsilon or casein kinase 1 delta. […]
The emitted fluorescence is measured at wavelengths of 445 and 520 nm (excitation at 400 nm).

For the compound `CC1(C)CN(c2ccc3nc(C4CC4)c(-c4ccnc(F)c4)n3n2)CCN1` [Compound 53, 2-Cyclopropyl-6-(3,3-dimethylpiperazin-1-yl)-3-(2-fluoropyridin-4-yl)imidazo[1,2-b]pyridazine], the “CE Delta (t + 1 h)” value in series [1] amounted to 319 nM. For the same compound, the IC50 in series [2] stood at 0.292 µM.
As for `Cc1nc2ccc(N3C[C@@H](C)N[C@@H](C)C3)nn2c1-c1ccncc1` [Compound 54, 6-(cis-3,5-Dimethylpiperazin-1-yl)-2-methyl-3-pyridin-4-ylimidazo[1,2-b]pyridazine], the IC50 in series [3] is under 0.001 µM.
For orientation: melting point means the temperature of the solid-liquid transition. Compound `Cc1nc2ccc(N3CC4CNCC4C3)nn2c1-c1ccncc1` (centres unmarked) [Compound 66, 6-Hexahydropyrrolo[3,4-c]pyrrol-2(1H)-yl-2-methyl-3-pyridin-4-ylimidazo[1,2-b]pyridazine] showed a melting point of 153 to 155 °C. In addition, the “CE Delta (t + 1 h)” value in series [1] came out at 633 nM. Further, the IC50 in series [2] stood at 0.013 µM.
As to `Cc1nc2ccc(N3CCC4(CCCNC4)CC3)nn2c1-c1ccncc1` [Compound 78, 9-(2-Methyl-3-pyridin-4-yl-imidazo[1,2-b]pyridazin-6-yl)-2,9-diazaspiro[5.5]undecane], the “CE Delta (t + 1 h)” value in series [1] was 515 nM. Besides, the IC50 in series [2] was 0.078 µM.
